Assays:
Ishikawa cells = test: Ishikawa Cell Alkaline Phosphatase Assay; assay type: cell-based, human; conditions: for % Activation (Compound + 1 nM 17β-estradiol): 10^-6 M compound + 10^-9 M 17β-estradiol; for % Activation (Compound + 1 nM 17β-estradiol) / % Activation: 48 h; for % Activation: compound alone, percent of response related to 1 nM 17β-estradiol
Protocol: Cells were treated for 48 h prior to assay. […] Sample population for at each dose was n=8. […] Plates are placed at -80°C for a minimum of 15 minutes. Plates are thawed at 37°C followed by the addition of 150μL of 0.1 M Tris-HCl, pH 9.8, containing 4 mM para-nitrophenylphosphate (pNPP) to each well (final concentration, 3 mM pNPP). Absorbance and slope calculations were made using the […] Application program (Bio-Tek Instruments, Inc., Winooski, VT). […] Various compounds were assayed for estrogenic activity by the alkaline phosphatase method and corresponding ED50 values (95% C.I.) were calculated. The four listed in the following were used as reference standards: A description of such methods is provided by Holinka, […]., Kuramoto, H. and Gurpide, E. (1986) Effects of steroid hormones and antisteroids on alkaline phosphatase activity in human endometrial cancer cells (Ishikawa Line). Cancer Research, 46:2771-2774, and by […]. and by […] simple and sensitive microtiter plate estrogen bioassay based on stimulation alkaline phosphatase in Ishikawa cells; […] Endocrinology, 6:2757-2762.

estrogen receptor [1] = target: T1, estrogen receptor (Homo sapiens, UniProt P03372); test: 2X VIT ERE Transfection Assay (Infection Luciferase Assay); assay type: cell-based; conditions: 24 h; for % Activation with 1 nM 17β-estradiol: 1 uM compound + 1 nM 17β-estradiol (test for estrogen antagonism); for % Activation: compound alone (1 uM), compared to 17β-estradiol
T1 sequence (P03372 1-595): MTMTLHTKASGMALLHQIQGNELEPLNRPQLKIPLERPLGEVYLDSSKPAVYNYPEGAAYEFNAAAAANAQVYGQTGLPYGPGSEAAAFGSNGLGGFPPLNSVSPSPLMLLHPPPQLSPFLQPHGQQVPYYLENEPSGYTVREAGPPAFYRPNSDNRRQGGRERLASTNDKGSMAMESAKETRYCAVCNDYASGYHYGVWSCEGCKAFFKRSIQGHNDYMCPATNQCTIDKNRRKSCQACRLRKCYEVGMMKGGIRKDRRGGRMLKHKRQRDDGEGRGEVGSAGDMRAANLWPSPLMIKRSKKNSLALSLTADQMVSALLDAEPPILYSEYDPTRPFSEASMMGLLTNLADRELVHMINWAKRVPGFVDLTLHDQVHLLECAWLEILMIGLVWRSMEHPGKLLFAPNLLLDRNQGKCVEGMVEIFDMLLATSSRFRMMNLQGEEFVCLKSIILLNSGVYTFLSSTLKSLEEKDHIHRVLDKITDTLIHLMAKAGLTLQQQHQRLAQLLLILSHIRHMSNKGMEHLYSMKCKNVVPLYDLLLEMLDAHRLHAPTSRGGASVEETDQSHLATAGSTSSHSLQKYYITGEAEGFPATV
Protocol: Chinese Hamster Ovary cells (CHO) which had been stably transfected with the human estrogen receptor were maintained in DMEM + 10% fetal bovine serum (FBS). 48h prior to treatment the growth medium was replaced with DMEM lacking phenol red + 10% dextran coated charcoal stripped FBS (treatment medium). Cells were plated at a density of 5000 cells/well in 96-well plates containing 200 µL of medium/well.
Reporter DNA (Promega plasmid pGL2 containing two tandem copies of the vitellogenin ERE in front of the minimal thymidine kinase promoter driving the luciferase gene) was combined with the B-galactosidase expression plasmid pCH110 (Pharmacia) and carrier DNA (pTZ18U) in the following ratio: • 10uG of reporter DNA • 5uG of pCH110DNA • 5 uG of pTZ18U • 20 uG of DNA/1 mL of transfection solution
20 uL of this mixture was added to each well of cells and remained on the cells for 16 h. […] Each treatment condition was performed on 8 wells (n=8) which were incubated for 24 h prior to the luciferase assay.
After removing the PBS, 25 uL of Promega lysis buffer was added to each well and allowed to stand at room temperature for 15 min, followed by 15 min at -80°C and 15 min at 37°C. 20 uL of lysate was transferred to an opaque 96 well plate for luciferase activity evaluation and the remaining lysate (5 uL) was used for the B-galactosidase activity evaluation (normalize transfection). The luciferan substrate (Promega) was added in 100 uL aliquots to each well automatically by the luminometer and the light produced (relative light units) was read 10 seconds after addition.
To the remaining 5 uL of lysate 45 uL of PBS was added. Then 50 uL of Promega B-galactosidase 2X assay buffer was added, mixed well and incubated at 37°C for 1 hour. A plate containing a standard curve (0.1 to 1.5 milliunits in triplicate) was set up for each experimental run. The plates were analyzed on a Molecular Devices spectrophotometric plate reader at 410 nm. The optical densities for the unknown were converted to milliunits of activity by mathematical extrapolation from the standard curve.
The luciferase data was generated as relative light units (RLUs) accumulated during a 10 second measurement and automatically transferred to a JMP (SAS Inc) file where background RLUs were subtracted. The B-galactosidase values were automatically imported into the file and these values were divided into the RLUs to normalize the data. The mean and standard deviations were determined from a n=8 for each treatment. […] These techniques are described by Tzukerman, M.T., Esty, A., Santiso-Mere, D., Danielian, P., Parker, M.G., Stein, R.B., Pike, J.W. and McDonnel, D.P. (1994). Human estrogen receptor transactivational capacity was determined by both cellular and promoter context and mediated by two functionally distinct intramolecular regions (see Molecular Endocrinology, 8:21-30).

estrogen receptor [2] = target: T1, estrogen receptor; test: In vitro estrogen receptor binding assay (competition with [3H]-17β-estradiol); design: expressed in transfected cells; host or cells: CHO cells (ribosome-free cytosol); conditions: relative to 17β-estradiol=100; cytosol of CHO cells overexpressing the estrogen receptor
Protocol: CHO cells overexpressing the estrogen receptor were grown in 150 mm^2 dishes in DMEM + 10% dextran coated charcoal, stripped fetal bovine serum. The plates were washed twice with PBS and once with 10mM Tris-HCl, pH 7.4, 1mM EDTA. Cells were harvested by scraping the surface and then the cell suspension was placed on ice. Cells were disrupted with a hand-held motorized tissue grinder using two, 10-second bursts. The crude preparation was centrifuged at 12,000g for 20 minutes followed by a 60 minute spin at 100,000g to produce a ribosome free cytosol. The cytosol was then frozen and stored at -80°C. Protein concentration of the cytosol was estimated using the BCA assay with reference standard protein.
100uG/100uL of the receptor preparation was aliquoted per well. […] The plate was incubated at room temperature for 2.5 h. At the end of this incubation period 150 uL of ice-cold dextran coated charcoal (5% activated charcoal coated with 0.05% 69K dextran) was added to each well and the plate was immediately centrifuged at 99g for 5 minutes at 4°C. 200 uL of the supernatant solution was then removed for scintillation counting. Samples were counted to 2% or 10 minutes, whichever occurs first. […] Also, wells containing radioactivity but no cytosol were processed with charcoal to estimate unremovable DPM of [^3H]
Counts per minute (CPM) of radioactivity were automatically converted to disintegrated per minute (DPM) by the Beckman LS 7500 Scintillation Counter using a set of quenched standards to generate a H# for each sample.
For the generation of IC50 curves, % binding is plotted vs compound. […] For a description of these methods, see Hulme, E.C., ed. 1992. Receptor-Ligand Interactions: A Practical Approach. IRL Press, New York.(see especially chapter 8).

Structure (SMILES)	% Activation (Compound + 1 nM 17β-estradiol) (Ishikawa cells)	% Activation (Ishikawa cells)	% Activation with 1 nM 17β-estradiol (estrogen receptor [1])	% Activation (estrogen receptor [1])	Estrogen Receptor Affinity (reported as RBA: 17β-estradiol=100) (estrogen receptor [2])	EC50 (Ishikawa cells; Ishikawa cells, reference standards, read-out: ED50 values (95% C.I.), estrogenic activity by the alkaline phosphatase method)
Cc1c(-c2ccc(O)cc2)n(Cc2ccc(/C=C/C(=O)N(C)C)cc2)c2ccc(O)cc12 [Example 10, (E)-N, N-Dimethyl-3-{4-[5-hydroxy-2-(4-hydroxy-phenyl)-3-methyl-indol-1-ylmethyl]-phenyl}-acrylamide]	19%	6%	2%	1%	20	–
CCCCN(C)C(=O)/C=C/c1ccc(Cn2c(-c3ccc(O)cc3)c(C)c3cc(O)ccc32)cc1 [Example 12, (E)-N-Butyl, N'-methyl-3-{4-[5-hydroxy-2-(4-hydroxy-phenyl)-3-methyl-indol-1-ylmethyl]-phenyl}-acrylamide]	16%	7%	24%	13%	114	–
Cc1c(-c2ccc(O)cc2)n(Cc2ccc(/C=C/C(=O)N3CCCC3)cc2)c2ccc(O)cc12 [Example 9, (E)-Pyrrolidino-3-{4-[5-hydroxy-2-(4-hydroxy-phenyl)-3-methyl-indol-1-ylmethyl]-phenyl}-acrylamide]	11%	3%	8%	6%	–	–
Cc1c(-c2ccc(O)cc2)n(Cc2ccc(C#CCN(C)C)cc2)c2ccc(O)cc12 [Example 21, 2-(4-Hydroxy-phenyl)-3-methyl-1-[4-(3-N, N-dimethyl-1-yl-prop-1-ynyl)-benzyl]-1H-indol-5-ol]	34%	34%	34%	34%	53	–
Cc1c(-c2ccc(O)cc2)n(Cc2ccc(C#CCN3CCCCC3)cc2)c2ccc(O)cc12 [Example 22, 2-(4-Hydroxy-phenyl)-3-methyl-1-[4-(3-piperidin-1-yl-prop-1-ynyl)-benzyl]-1H-indol-5-ol]	23%	27%	19%	17%	23	–
CCCCN(CCCC)C(=O)/C=C/c1ccc(Cn2c(-c3ccc(O)cc3)c(C)c3cc(O)ccc32)cc1 [Example 11, (E)-N, N-Dibutyl-3-{4-[5-hydroxy-2-(4-hydroxy-phenyl)-3-methyl-indol-1-ylmethyl]-phenyl}-acrylamide]	11%	6%	12%	8%	80	–
Cc1c(-c2ccc(O)cc2)n(Cc2ccc(/C=C/C(=O)N3CCOCC3)cc2)c2ccc(O)cc12 [Example 13]	9%	7%	17%	8%	–	–
Cc1c(-c2ccc(O)cc2)n(Cc2ccc(/C=C/C(=O)NC(C)(C)C)cc2)c2ccc(O)cc12 [Example 8, 1(E)-N-tert-butyl-3-{4-[5-hydroxy-2-(4-hydroxy-phenyl)-3-methyl-indol-1-ylmethyl]-phenyl}-acrylamide]	22%	10%	78%	6%	40	–
CC/C(=C(\c1ccccc1)c1ccc(OCCN(C)C)cc1)c1ccccc1 [tamoxifen, reference compound]	45%	–	–	–	–	–
CNC(=O)/C=C/c1ccc(Cn2c(-c3ccc(O)cc3)c(C)c3cc(O)ccc32)cc1 [Example 15, (E)-N, Methyl-3-{4-[5-hydroxy-2-(4-hydroxy-phenyl)-3-methyl-indol-1-ylmethyl]-phenyl}-acrylamide]	5%	0%	31%	15%	53	–
CCN(CC)C(=O)/C=C/c1ccc(Cn2c(-c3ccc(O)cc3)c(C)c3cc(O)ccc32)cc1 [Example 7, (E)-N, N-Diethyl-3-{4-[5-hydroxy-2-(4-hydroxy-phenyl)-3-methyl-indol-1-ylmethyl]-phenyl}-acrylamide]	9%	1%	8%	4%	42	–
C[C@]12CC[C@@H]3c4ccc(O)cc4CC[C@H]3[C@@H]1CC[C@H]2O [17α-estradiol, reference compound]	–	–	–	–	–	1.42 nM
O=C(c1ccc(OCCN2CCCCC2)cc1)c1c(-c2ccc(O)cc2)sc2cc(O)ccc12 [raloxifene, reference compound]	5%	–	–	–	–	–
